The values below come from PMC10107299, “Neutralizing the Impact of the Virulence Factor LecA from Pseudomonas aeruginosa on Human Cells with New Glycomimetic Inhibitors” (Angewandte Chemie (International Ed. in English), 2023).

Series [1] in a line: Kinetic solubility in TBS/Ca2+ buffer (HPLC-MS). Format: physicochemical. The following applies: aqueous buffer, kinetic from dmso stock; TBS/Ca2+ buffer pH 7.4, 1 % DMSO, N≥3; read-out: Solubility S (kinetic). On the procedure:
Next, we quantified the solubility of at least one representative of each new class and of one parent bisacylhydrazone in aqueous media (Table 1). […]
TBS/Ca2+ buffer (20 mM Tris, 137 mM NaCl, 2.6 mM KCl at pH 7.4 supplemented with 1 mM […]
(§1) CaCl2) in presence of 25% DMSO. […]
Kinetic solubility was determined on the analytical HPLC-MS using Compass QuantAnalysis quantification software (Bruker). Samples were prepared from DMSO stock solutions by dilution with TBS/Ca2+ buffer to 100 µM with 1% DMSO present. Samples were incubated on a shaker for 1 h at r.t., centrifuged (21380 g, 20 min), supernatants were diluted with DMSO (1:3), analyzed by HPLC-MS and fitted to the individual calibration curves.
Every experiment was repeated independently at least three times. […]

For series [2], the target named is T1, LecA (Pseudomonas aeruginosa, UniProt Q05097).
T1 construct: made in house
Kind of series: Competitive binding assay based on fluorescence polarization. The protocol: All synthesized galactosides were then evaluated for LecA inhibition using a competitive binding assay based on fluorescence polarization (Figure S1).[24]
Expression and purification of LecA as well as competitive binding by fluorescence polarization was performed as described by Joachim et al..[9] The assay was performed in TBS/Ca2+ buffer (20 mM Tris, 137 mM NaCl, 2.6 mM KCl at pH 7.4 supplemented with 1 mM CaCl2) in presence of 25% DMSO. Averages and standard deviations were calculated from at least three independent experiments. […]
RR OR In h i b i to r [µ M ]
R R In h i b i to r [µ M ] […]
R In h i b i to r [µ M ] 30 L2
30 F2 40 K2 In h i b i to r [µ M ] […]
In h i b i to r [µ M ] In h i b i to r [µ M ]
Figure S1: Evaluation of amide divalent LecA ligands in a competitive binding assay based on fluorescence […]
representative experiment is shown or each series. Averages and standard deviations from at least three independent titrations of triplicates each.
[…] Fluorescence polarization [mP] -1 0 1 2 3 0 1001010 Me-α-Gal pNO2-Ph-β-Gal 1000 Inhibitor [µM] Fluorescence polarization [mP])

Series [3] concerns the target T1, LecA. Put plainly: Direct binding to immobilized LecA by surface plasmon resonance (SPR). The conditions noted are these: for kon: SPR single-cycle kinetics, 25 °C, N=3 (I1 N=1); for Relative potency r.p. (SPR): compared to respective monovalent compound in each series. On the procedure: K d values were oscillating with the number of methylene units present in the linker, presumably linked to the zig‐zag geometry of the hydrocarbon chain.
Expression and purification of LecA as well as competitive binding by fluorescence polarization was performed as described by Joachim et al..[9] […]
Surface plasmon resonance experiments were performed on a BIACORE X100 instrument (GE Healthcare) at 25 °C as described by Zahorska et. al..[8] Averages and standard deviations were calculated from three independent experiments. […]
Figure S3: SPR of divalent LecA ligands from benzene series. Sensorgrams obtained from SPR single-cycle kinetics experiments. Five different concentrations of each compound (0, 10, 50, 100, 200 nM) were sequentially injected to obtain the experimental sensorgrams (blue lines), which were then fitted by a 1:1 model (orange) on BIACORE evaluation software. […]
Figure S4: SPR of divalent LecA ligands from pyridine and sulfonated series. Sensorgrams obtained from SPR single-cycle kinetics experiments. Five different concentrations of each compound (0, 10, 50, 100, 200 nM) were sequentially injected to obtain the experimental sensorgrams (blue lines), which were then fitted by a 1:1 model (orange) on BIACORE evaluation software.
(also on this page, place not known: Response (RU)0 Response (RU)0 Response (RU) Response (RU) Response (RU) Response (RU) 030060090012001500) […]
(In general: SPR reads the build-up and loss of mass on a sensor chip optically.)

Series [4] addresses T1, LecA. Kind of series: Isothermal titration microcalorimetry (ITC) with LecA. Format: binding. The following applies: for -TΔS (supplement) / ΔS: ITC average ± s.d.; for Relative potency r.p. (ITC): compared to respective monovalent compound in each series; for ΔG, individual titration / ΔH, individual titration: LecA 35-182 µM, ligand 100 µM-1.5 mM as headed.
Description: Due to the high solubility of the propanamides in the pyridine series and the sulfonated ligand L2, we determined binding thermodynamics with LecA using isothermal titration microcalorimetry (ITC, Figure 3, Figures S5–S9). […] In both cases, the enthalpy of binding increased approximately twofold (I2: ΔH=−23.9±1.2 kcal mol^−1, L2: ΔH=−19.5±1.3 kcal mol^−1) compared to their monovalent analogues (G2: ΔH=−11.0±0.2 kcal mol^−1, K2: ΔH=−10.3±0.1 kcal mol^−1), while the binding entropy was increased approximately threefold (G2: −TΔS=3.8±0.2 kcal mol^−1 vs. I2: −TΔS=13.7±1.3 kcal mol^−1, K2: −TΔS=3.2±0.2 kcal mol^−1 vs. L2: −TΔS=9.4±1.3 kcal mol^−1).
Figure 3 Direct binding of selected ligands to LecA by ITC (N=3). Titration of LecA (50 μM) with divalent sulfonated ligand L2 (250 μM) is depicted. Relative potencies (r.p.) were calculated compared to respective monovalent compound in each series and […]. TEXT PRINTED IN THE PICTURE: G2: ΔG [kcal/mol]: -7.2 ± 0.1; ΔH [kcal/mol]: -11.0 ± 0.2; -TΔS [kcal/mol]: 3.8 ± 0.2; N: 1.07 ± 0.06; Kd [nM]: 5 270 ± 30; r.p.: 1 | I2: ΔG [kcal/mol]: -10.2 ± 0.2; ΔH [kcal/mol]: -23.9 ± 1.2; -TΔS [kcal/mol]: 13.7 ± 1.3; N: 0.43 ± 0.01; Kd [nM]: 35.1 ± 12.5; r.p.: 150 | J2: ΔG [kcal/mol]: -9.7 ± 0.2; ΔH [kcal/mol]: -13.5 ± 0.4; -TΔS [kcal/mol]: 3.8 ± 0.5; N: 0.61 ± 0.06; Kd [nM]: 79.5 ± 32.8; r.p.: 66 | K2: ΔG [kcal/mol]: -7.1 ± 0.1; ΔH [kcal/mol]: -10.3 ± 0.1; -TΔS [kcal/mol]: 3.2 ± 0.2; N: 1.08 ± 0.13; Kd [nM]: 6 230 ± 440; r.p.: 1 | L2: ΔG [kcal/mol]: -10.1 ± 0.1; ΔH [kcal/mol]: -19.5 ± 1.3; -TΔS [kcal/mol]: 9.4 ± 1.3; N: 0.52 ± 0.06; Kd [nM]: 39.9 ± 3.6; r.p.: 156 […]
Expression and purification of LecA as well as competitive binding by fluorescence polarization was performed as described by Joachim et al..[9] The assay was performed in TBS/Ca2+ buffer (20 mM Tris, 137 mM NaCl, 2.6 mM KCl at pH 7.4 supplemented with 1 mM […]
as §1
Isothermal titration calorimetry was performed on an iTC200 (Malvern Panalytical) and the data were analyzed using Microcal Origin software (Malvern Panalytical). LecA (50 - 180 […]
K2 and L2 and TBS/Ca2+ buffer supplemented with 5% DMSO for I2 and J2. Steep titration slopes achieved with the divalent ligands were the result of high amount of protein present and the high binding affinity of the ligand (high ‘value of c’).[10] However, LecA protein […]
low heat released upon binding. […]

[5] abbreviates: ITC average, 25 °C, TBS/Ca2+ buffer (5% DMSO for I2 and J2), N=3.
The mark [6] stands for this setting: Kd (ITC), ITC average, 25 °C, TBS/Ca2+ buffer (5% DMSO for I2 and J2), N=3.
[7] abbreviates: Kd, individual titration, single ITC titrations, three per ligand.
[8] abbreviates: single ITC titrations, three per ligand.

SMILES strings stand for the structures. Converted amounts (≈) assume the structure as drawn. “And” between values parts separate entries of the source, which are not always exact repeats. Equal entries are not always repeated.

T1 sequence (Q05097 whole entry): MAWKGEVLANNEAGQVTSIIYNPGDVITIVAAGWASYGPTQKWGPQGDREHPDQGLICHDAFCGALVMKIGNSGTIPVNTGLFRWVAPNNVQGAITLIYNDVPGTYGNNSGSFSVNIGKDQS

As a reminder, the solubility (kinetic) is solubility judged after dilution from a stock solution rather than from solid. What is called IC50 is the midpoint of a concentration-inhibition curve. As usually defined, the Kd is a measure of binding affinity in units of concentration. For orientation: koff means the first-order rate constant of dissociation. Lower therefore signals slow dissociation. As to `O=C(CCc1ccc(O[C@@H]2O[C@H](CO)[C@H](O)[C@H](O)[C@H]2O)cc1)Nc1ccc(OCCCCOc2ccc(NC(=O)CCc3ccc(O[C@@H]4O[C@H](CO)[C@H](O)[C@H](O)[C@H]4O)cc3)cn2)nc1` [Compound J2], the solubility (kinetic) at 1 h in series [1] is 13.7 ± 1.7 µM (≈ 12.3 µg/mL). This compound registered an IC50 in series [2] of 3400 ± 1300 nM. In addition, in series [3], the affinity, expressed as Kd, was 25.1 ± 1.9 nM; the koff was 0.0068 ± 0.00265 s⁻¹; the kon is on record as 267 ± 84 x10^3/Ms; the “Relative potency r.p. (SPR)” value is reported as 118. Also, in series [4] (25 °C), the “-TΔS (supplement)” value was determined as 3.8 ± 0.5 kcal/mol and the ΔS is reported as -12.6 ± 1.8 cal/mol/K. In addition, the “N (stoichiometry)” value in series [4] (ITC average, 25 °C, N=3) is listed as 0.61 ± 0.06. Moreover, in series [4] (setting [5]), the “-TΔS” value turned out to be 3.8 ± 0.5 kcal/mol, the ΔG is reported as -9.7 ± 0.2 kcal/mol and the ΔH is -13.5 ± 0.4 kcal/mol. Further, binding in series [4] (setting [6]) was characterised by a dissociation constant (Kd) of 79.5 ± 32.8 nM. In addition, the Kd in series [4] (setting [7]) was 59.9 nM and 52.9 nM and 126 nM. Further, in series [4], the “Relative potency r.p. (ITC)” value is 66. In series [4] (setting [8]), the “N, individual titration” value was 0.53 and 0.62 and 0.69; the “ΔS, individual titration” value is -10.1 cal/mol/K and -13.8 cal/mol/K and -14.0 cal/mol/K; the “ΔG, individual titration” value is -9.9 kcal/mol (2×) and -9.4 kcal/mol; the “ΔH, individual titration” value is -14.0 kcal/mol and -12.9 kcal/mol and -13.5 kcal/mol.

As for `O=C(CCc1ccc(O[C@@H]2O[C@H](CO)[C@H](O)[C@H](O)[C@H]2O)cc1)Nc1ccc(OCCCOc2ccc(NC(=O)CCc3ccc(O[C@@H]4O[C@H](CO)[C@H](O)[C@H](O)[C@H]4O)cc3)cn2)nc1` [Compound I2], the kinetic solubility at 1 h in series [1] came out at 63.3 ± 4.2 µM (≈ 55.8 µg/mL). For the same compound, in series [2], the concentration for half-maximal inhibition (IC50) stood at 3200 ± 1300 nM. Moreover, in series [3], binding was put at a Kd of 30.8 ± 1.5 nM, the koff came to 0.00809 ± 0.00124 s⁻¹, the kon is listed as 262 ± 28 x10^3/Ms and the “Relative potency r.p. (SPR)” value stood at 97. Further, in series [4] (25 °C), the “-TΔS (supplement)” value worked out at 13.7 ± 1.3 kcal/mol and the ΔS was -45.9 ± 4.5 cal/mol/K. Further, in series [4] (ITC average, 25 °C, N=3), the “N (stoichiometry)” value is 0.43 ± 0.01. In series [4] (setting [5]), the “-TΔS” value was 13.7 ± 1.3 kcal/mol, the ΔG is -10.2 ± 0.2 kcal/mol and the ΔH is -23.9 ± 1.2 kcal/mol. The Kd in series [4] (setting [6]) is 35.1 ± 12.5 nM. Also, the equilibrium dissociation constant (Kd) in series [4] (setting [7]) is 48.3 nM and 38.8 nM and 18.3 nM. The “Relative potency r.p. (ITC)” value in series [4] stood at 150. Further, in series [4] (setting [8]), the “N, individual titration” value was 0.44 (2×) and 0.43; the “ΔS, individual titration” value was -51.6 cal/mol/K and -40.6 cal/mol/K and -45.6 cal/mol/K; the “ΔG, individual titration” value was -10.0 kcal/mol and -10.1 kcal/mol and -10.6 kcal/mol; the “ΔH, individual titration” value is -23.6 kcal/mol and -25.5 kcal/mol and -22.7 kcal/mol.
